# Experimental data as given in US20220081422A1 (Janssen Biotech, Inc., priority 2019, published 2022).
# pIC50: −log10 of the molar value.
# Key:
# human DHODH = target: T1, human DHODH (Homo sapiens, UniProt Q02127); assay: DHODH enzymatic assay (DCIP absorbance, end-point); assay type: biochemical; details: purified human DHODH, DCIP as final electron acceptor, end-point mode; read-out: hDHODH IC50
# T1 construct: purchased Proteros PR-0044
# Protocol: In vitro Assay: DHODH enzymatic assay
# To detect DHODH enzyme activities, dichloroindophenol (DCIP) is added as the final electron acceptor in the assay. DCIP can accept electrons from the reduced coenzyme Q generated in the assay, or from dihydroorotate (DHO) via FMN by binding presumably to the ubiquinone pocket. […] The assay buffer contained […], pH 7.5, 150 mM NaCl, 0.5 mM EDTA, and 0.1% Triton X-100 in MilliQ water. Substrate consisting of 20 mM DHO, 5 mM CoQ6, and 1 mM DCIP in assay buffer, initiates the reaction. […] Absorbance measurements were obtained using the BMG Phera Star plate-reading spectrophotometer. Purified human DHODH was purchased from Proteros (cat. No. PR-0044). Chemicals were purchased from Sigma-Aldrich, Teknova, and Avanti Polar Lipids. Liquid handling was performed using Labcyte Echo and Formulatrix Tempest.
# MOLM-13 cells = assay: MOLM-13 cellular assay (CellTiter-Glo cell viability); assay type: cell-based; details: 72 hours exposure, cell viability by CellTiter-Glo
# Protocol: In Vitro Assay: MOLM-13 Cellular Assay
# MOLM-13 cells were obtained from DSMZ and were maintained in RPMI 1640+Glutamax+25 mM HEPES (Invitrogen, catalog number 72400) supplemented with 10% heat inactivated fetal bovine serum (FBS; Invitrogen, catalog number 16140). The day prior to assay set-up, cells were pelleted, resuspended in fresh media, counted, and cells were plated at 0.4×10^6 cell/mL in a T150 flask. On the day of the assay, cells were pelleted, resuspend in fresh media, counted and seeded at 5,000 cells/well in white opaque 96-well tissue culture treated microplates (Perkin Elmer, catalog number 6005680). Cells were exposed to different concentrations of test compounds at 37° C., 5% CO2 for 72 hours immediately after seeding. Cell viability was acquired on a Perkin Elmer Envision 2104 multilabel reader using the CellTiter-Glo assay (Promega) according to the manufacturer's instructions.
# T1 sequence (Q02127 whole entry): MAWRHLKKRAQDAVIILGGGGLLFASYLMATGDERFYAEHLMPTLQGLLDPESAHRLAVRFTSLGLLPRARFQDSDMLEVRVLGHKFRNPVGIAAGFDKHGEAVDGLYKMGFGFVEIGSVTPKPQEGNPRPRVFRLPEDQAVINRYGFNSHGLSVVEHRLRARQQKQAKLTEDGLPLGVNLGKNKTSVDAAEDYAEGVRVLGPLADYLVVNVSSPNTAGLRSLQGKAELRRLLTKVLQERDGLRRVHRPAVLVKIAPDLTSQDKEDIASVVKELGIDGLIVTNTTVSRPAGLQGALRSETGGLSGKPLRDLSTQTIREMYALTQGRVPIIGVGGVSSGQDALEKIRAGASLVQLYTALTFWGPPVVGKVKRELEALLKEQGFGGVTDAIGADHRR
structure (smiles),measurement,setting,value
"CCn1c(CO)nn(-c2ccc3c(c2)C(C(C)C)CN(c2cccc(F)c2)C3=O)c1=O (racemic) [Example 10, Racemic-6-(4-Ethyl-3-(hydroxymethyl)-5-oxo-4,5-dihydro-1H-1,2,4-triazol-1-yl)-2-(3-fluorophenyl)-4-isopropyl-3,4-dihydroisoquinolin-1(2H)-one]",pIC50,human DHODH,6.72
same,pIC50,"MOLM-13 cells; Homo sapiens, MOLM-13, 72 h",< 8.52
"C=C(C)C1CN(c2c(F)cccc2Cl)C(=O)c2ccc(-n3nc(CO)n(CC)c3=O)cc21 (racemic) [Example 11, Racemic-2-(2-Chloro-6-fluorophenyl)-6-(4-ethyl-3-(hydroxymethyl)-5-oxo-4,5-dihydro-1H-1,2,4-triazol-1-yl)-4-(prop-1-en-2-yl)-3,4-dihydroisoquinolin-1(2H)-one]",pIC50,human DHODH,8.77
same,pIC50,"MOLM-13 cells; Homo sapiens, MOLM-13, 72 h",9.00
"CCn1c(CO)nn(-c2ccc3c(c2)C(C(C)C)CN(c2ccccc2F)C3=O)c1=O (racemic) [Example 12, Racemic-6-(4-Ethyl-3-(hydroxymethyl)-5-oxo-4,5-dihydro-1H-1,2,4-triazol-1-yl)-2-(2-fluorophenyl)-4-isopropyl-3,4-dihydroisoquinolin-1(2H)-one]",pIC50,human DHODH,6.85
same,pIC50,"MOLM-13 cells; Homo sapiens, MOLM-13, 72 h",7.24
"CCn1c(CO)nn(-c2ccc3c(c2)C(C(C)C)CN(c2c(F)cccc2Cl)C3=O)c1=O (racemic) [Example 13, Racemic-2-(2-Chloro-6-fluorophenyl)-6-(4-ethyl-3-(hydroxymethyl)-5-oxo-4,5-dihydro-1H-1,2,4-triazol-1-yl)-4-isopropyl-3,4-dihydroisoquinolin-1(2H)-one]",pIC50,human DHODH,7.70
same,pIC50,"MOLM-13 cells; Homo sapiens, MOLM-13, 72 h",8.14
"CCn1c(CO)nn(-c2ccc3c(c2)C(c2ccccc2)CN(c2cccc(F)c2)C3=O)c1=O (racemic) [Example 14, Racemic-6-(4-Ethyl-3-(hydroxymethyl)-5-oxo-4,5-dihydro-1H-1,2,4-triazol-1-yl)-2-(3-fluorophenyl)-4-phenyl-3,4-dihydroisoquinolin-1(2H)-one]",pIC50,human DHODH,5.99
same,pIC50,"MOLM-13 cells; Homo sapiens, MOLM-13, 72 h",6.12
"C=C(C)C1CN(c2c(Cl)ccnc2C)C(=O)c2cc(F)c(-n3nc(CO)n(CC)c3=O)cc21 (racemic) [Example 25, Racemic-2-(4-Chloro-2-methylpyridin-3-yl)-6-(4-ethyl-3-(hydroxymethyl)-5-oxo-4,5-dihydro-1H-1,2,4-triazol-1-yl)-7-fluoro-4-(prop-1-en-2-yl)-3,4-dihydroisoquinolin-1(2H)-one]",pIC50,human DHODH,< 7.00
same,pIC50,"MOLM-13 cells; Homo sapiens, MOLM-13, 72 h",7.20
"C=C(C)C1CN(c2cc(C)ccc2F)C(=O)c2cc(F)c(-n3nc(CO)n(CC)c3=O)cc21 (racemic) [Example 38, Racemic-6-(4-ethyl-3-(hydroxymethyl)-5-oxo-4,5-dihydro-1H-1,2,4-triazol-1-yl)-7-fluoro-2-(2-fluoro-5-methylphenyl)-4-(prop-1-en-2-yl)-3,4-dihydroisoquinolin-1(2H)-one]",pIC50,human DHODH,7.52
same,pIC50,"MOLM-13 cells; Homo sapiens, MOLM-13, 72 h",7.44
"C=C(C)C1CN(c2c(C)ccnc2Cl)C(=O)c2cc(F)c(-n3nc(CO)n(CC)c3=O)cc21 (racemic) [Example 45, Racemic-2-(2-chloro-4-methylpyridin-3-yl)-6-(4-ethyl-3-(hydroxymethyl)-5-oxo-4,5-dihydro-1H-1,2,4-triazol-1-yl)-7-fluoro-4-(prop-1-en-2-yl)-3,4-dihydroisoquinolin-1(2H)-one]",pIC50,human DHODH,8.15
same,pIC50,"MOLM-13 cells; Homo sapiens, MOLM-13, 72 h",8.16
"C=C(C1CN(c2c(F)cccc2Cl)C(=O)c2ccc(-n3nc(CO)n(CC)c3=O)cc21)C(F)(F)F (racemic) [Example 73, Racemic 2-(2-Chloro-6-fluorophenyl)-6-(4-ethyl-3-(hydroxymethyl)-5-oxo-4,5-dihydro-1H-1,2,4-triazol-1-yl)-4-(3,3,3-trifluoroprop-1-en-2-yl)-3,4-dihydroisoquinolin-1(2H)-one]",pIC50,human DHODH,8.10
same,pIC50,"MOLM-13 cells; Homo sapiens, MOLM-13, 72 h",7.91
"CC[C@H](C)[C@H]1CN(c2c(F)cccc2Cl)C(=O)c2cc(F)c(-n3nc(CO)n(CC)c3=O)cc21 (relative stereo) [Example 71, (R*)-4-((S *)-sec-B utyl)-2-(2-chloro-6-fluorophenyl)-6-(4-ethyl-3-(hydroxymethyl)-5-oxo-4,5-dihydro-1H-1,2,4-triazol-1-yl)-7-fluoro-3,4-dihydroisoquinolin-1(2H)-one]",pIC50,human DHODH,8.40
same,pIC50,"MOLM-13 cells; Homo sapiens, MOLM-13, 72 h",8.37
"CC[C@@H](C)[C@H]1CN(c2c(F)cccc2Cl)C(=O)c2cc(F)c(-n3nc(CO)n(CC)c3=O)cc21 (relative stereo) [Example 72, (R*)-4-((R*)-sec-Butyl)-2-(2-chloro-6-fluorophenyl)-6-(4-ethyl-3-(hydroxymethyl)-5-oxo-4,5-dihydro-1H-1,2,4-triazol-1-yl)-7-fluoro-3,4-dihydroisoquinolin-1(2H)-one]",pIC50,human DHODH,8.30
same,pIC50,"MOLM-13 cells; Homo sapiens, MOLM-13, 72 h",8.18
"CCn1c(CO)nn(-c2cc3c(cc2F)C(=O)N(c2ccccc2Cl)CC3C(C)C)c1=O (single isomer, unassigned) [Example 36, (S*)-2-(2-Chlorophenyl)-6-(4-ethyl-3-(hydroxymethyl)-5-oxo-4,5-dihydro-1H-1,2,4-triazol-1-yl)-7-fluoro-4-isopropyl-3,4-dihydroisoquinolin-1(2H)-one]",pIC50,human DHODH,7.52
same,pIC50,MOLM-13 cells,7.50
"C=C(C)C1CN(c2c(C)ccnc2Cl)C(=O)c2cc(F)c(-n3nc(CO)n(CC)c3=O)cc21 (single isomer, unassigned) [Example 46, (S*)-2-(2-Chloro-4-methylpyridin-3-yl)-6-(4-ethyl-3-(hydroxymethyl)-5-oxo-4,5-dihydro-1H-1,2,4-triazol-1-yl)-7-fluoro-4-(prop-1-en-2-yl)-3,4-dihydroisoquinolin-1(2H)-one]",pIC50,MOLM-13 cells,8.26
"C=C(C)C1CN(c2c(C)ccnc2Cl)C(=O)c2cc(F)c(-n3nc(CO)n(CC)c3=O)cc21 (single isomer, unassigned) [Example 47, (R *)-2-(2-Chloro-4-methylpyridin-3-yl)-6-(4-ethyl-3-(hydroxymethyl)-5-oxo-4,5-dihydro-1H-1,2,4-triazol-1-yl)-7-fluoro-4-(prop-1-en-2-yl)-3,4-dihydroisoquinolin-1 (2H)-one]",pIC50,MOLM-13 cells,6.53
"C=C(C)[C@H]1CN(c2c(C)ccnc2OC)C(=O)c2cc(F)c(-n3nc(CO)n(CC)c3=O)cc21 (single isomer, unassigned; atropisomer 1) [Example 52, Atropisomer 1, (R *)-6-(4-Ethyl-3-(hydroxymethyl)-5-oxo-4,5-dihydro-1H-1,2,4-triazol-1-yl)-7-fluoro-2-(2-methoxy-4-methylpyridin-3-yl)-4-(prop-1-en-2-yl)-3,4-dihydroisoquinol in-1 (2H)-one]",pIC50,MOLM-13 cells,6.98
"C=C(C)[C@H]1CN(c2c(C)ccnc2OC)C(=O)c2cc(F)c(-n3nc(CO)n(CC)c3=O)cc21 (single isomer, unassigned; atropisomer 2) [Example 53, Atropisomer 2, (R*)-6-(4-Ethyl-3-(hydroxymethyl)-5-oxo-4,5-dihydro-1H-1,2,4-triazol-1-yl)-7-fluoro-2-(2-methoxy-4-methylpyridin-3-yl)-4-(prop-1-en-2-yl)-3,4-dihydroisoquinolin-1(2H)-one]",pIC50,MOLM-13 cells,8.47
"C=C(C)[C@H]1CN(c2c(C)cnc(OC)c2Cl)C(=O)c2cc(F)c(-n3nc(CO)n(CC)c3=O)cc21 (single isomer, unassigned; atropisomer 2) [Example 65, Atropisomer 2, (R*)-2-(3-Chloro-2-methoxy-5-methylpyridin-4-yl)-6-(4-ethyl-3-(hydroxymethyl)-5-oxo-4,5-dihydro-1H-1,2,4-triazol-1-yl)-7-fluoro-4-(prop-1-en-2-yl)-3,4-dihydroisoquinolin-1(2H)-one]",pIC50,MOLM-13 cells,7.68
"CCn1c(CO)nn(-c2cc3c(cc2F)C(=O)N(c2c(F)cccc2Cl)CN3C(C)C)c1=O [Example 1, 3-(2-Chloro-6-fluorophenyl)-7-(4-ethyl-3-(hydroxymethyl)-5-oxo-4,5-dihydro-1H-1,2,4-triazol-1-yl)-6-fluoro-1-isopropyl-2,3-dihydroquinazolin-4(1H)-one]",pIC50,"MOLM-13 cells; Homo sapiens, MOLM-13, 72 h",9.07
"CCn1c(CO)nn(-c2ccc3c(c2)C(C(C)C(F)(F)F)CN(c2ccccc2F)C3=O)c1=O (centres unmarked) [Example 74, 6-(4-Ethyl-3-(hydroxymethyl)-5-oxo-4,5-dihydro-1H-1,2,4-triazol-1-yl)-2-(2-fluorophenyl)-4-(1,1,1-trifluoropropan-2-yl)-3,4-dihydroisoquinolin-1(2H)-one]",pIC50,"MOLM-13 cells; Homo sapiens, MOLM-13, 72 h",6.99
"CCn1c(CO)nn(-c2ccc3c(c2)C(C(C)C(F)(F)F)CN(c2c(F)cccc2Cl)C3=O)c1=O (centres unmarked) [Example 75, 2-(2-Chloro-6-fluorophenyl)-6-(4-ethyl-3-(hydroxymethyl)-5-oxo-4,5-dihydro-1H-1,2,4-triazol-1-yl)-4-(1,1,1-trifluoropropan-2-yl)-3,4-dihydroisoquinolin-1(2H)-one]",pIC50,"MOLM-13 cells; Homo sapiens, MOLM-13, 72 h",7.79
